The values below are quoted from earlier work in US20260240156A1, “OIL-BASED DISPERSION COMPOSITIONS OF SOLID PARTICULATE HYGROSCOPIC OR WATER-SOLUBLE PESTICIDES” (priority 2023, published 2026).

The conditions of this data set: in water compared to non-aqueous systems.

Structures are written as SMILES.

On to `CC1=NNC(=O)N(/N=C/c2cccnc2)C1` [Pymetrozine, 6-methyl-4-[(E)-(pyridin-3ylmethylene)amino]-4,5-dihydro-2H-[1,2,4]-triazin-3-one], for which the Photodegradation entry is on record as “significantly faster in water compared to non-aqueous systems”.
